Laboratory results as given in patent US8273756B2, “Use of modified pyrimidine compounds to promote stem cell migration and proliferation” (University of Central Florida Research Foundation, Inc., priority 2002, dated 2012).
Entries after “also recorded” stand apart in the source; their conditions may differ.

Tests used:
[1] = tested on: endogenous neural stem cell populations in the brain; assay: Endogenous stem cell proliferation in aged rat brain after MS-818 i.p., BrdU immunostaining; format: in vivo; settings: 3 mg/kg/day i.p. for 5 days
Description: To investigate the effect of MS-818, a pyrimidine derivative, on stem cell population in vivo, MS-818 (3 mg/kg/day, i.p.) was injected for 5 days into aged (27-month old) male Fisher 344 rats. The same volume of saline was injected into control animals. Bromodeoxyuridine (BrdU) (100 mg/kg/day i.p.) was then injected for 3 days. Twenty-four hours after the last injection, the brains were removed and fixed for immunohistochemical detection of the proliferating cells by immunostaining for BrdU.

[2] = tested on: endogenous retinal stem cell populations; assay: Endogenous retinal stem cell proliferation after intraocular MS-818, BrdU immunostaining; format: in vivo; settings: rat; intraocular (vitreous cavity) 10 μg/20 μl, one time injection; after three days

## CC1Nc2nc(N3CCCCC3)ncc2C1=O.O=C(O)/C=C\C(=O)O (stereo not shown) [MS-818, 2-piperadino-6-methyl-5-oxo-5,6-dihydro(7H) pyrrolo[2,3-d]pyrimidine maleate]
[1]
  proliferation and migration of stem cells in the subventricular zone: significant increase not only in the proliferation but also in the migration of stem cells
[1]; vs control without MS-818
  number of BrdU positive cells in SVZ (immunohistochemistry): increased
  number of BrdU positive cells in cerebral cortex (immunohistochemistry): significantly increased
[2]
  number of BrdU-positive cells in retina / retinal ciliary marginal zone: dramatic increase; also recorded: clearly increased
